The test deals with murine leukaemia, L1210. The test can be described thus: In vitro cytotoxicity, Microculture Tetrazolium Assay. In kind it is cell-based. The settings on record: Mus musculus, 48 h; L1210 cells, incubated for 2 days; read-out: IC50 (concentration of cytotoxic agent which inhibits proliferation of the treated cells by 50%). On the procedure:
Three cell lines were used:
1 murine leukaemia, L1210,
1 human non-small-cell lung carcinoma, A549,
1 human colon carcinoma, HT29.
The cells are cultured in RPMI 1640 complete culture medium containing 10% foetal calf serum, 2 mM glutamine, 50 units/ml of penicillin, 50 μg/ml of streptomycin and 10 mM Hepes, pH=7.4. The cells are distributed on microplates and are exposed to the cytotoxic compounds. The cells are then incubated for 2 days (L1210) or 4 days (A549, HT29). The number of viable cells is then quantified by a colorimetric assay, the Microculture Tetrazolium Assay (Cancer Res. 1987, 47, 939-942).

Turning to `COc1cc(C2C3=C(COC3=S)N(Cc3ccccc3)c3cc4c(cc32)OCO4)cc(OC)c1OC` (stereo not shown) [Example 5, 4-Benzyl-6,7-methylenedioxy-9-(3,4,5-trimethoxyphenyl)-4,9-dihydrofuro[3,4-b]quinoline-1(3H)-thione], the IC50 was 0.19 µM.

The record behind these values is patent publication US20040198981A1, “Tricyclic dihydroquinoline derivatives,method for preparing same and pharmaceutical compositions containing same” (priority 2001, published 2004).
